Reference: ChEMBL document CHEMBL1146314, “Methotrexate gamma-hydroxamate derivatives as potential dual target antitumor drugs” (Bioorg Med Chem, 2007)

Key:
[1] = target: T1, Matrix metalloproteinase-14 (Homo sapiens, UniProt P50281); experiment: Inhibition of human recombinant MMP14
[2] = system: A549; experiment: Antiproliferative activity against A549 cells after 72 hrs by MTT assay; type: functional, cell-based; details: Homo sapiens, A549, 72 h
[3] = system: PPC-1; experiment: Antiproliferative activity against PPC1 cells after 72 hrs in folate depleted media; type: functional, cell-based; details: Homo sapiens, PPC-1, 72 h
[4] = system: PPC-1; experiment: Antiproliferative activity against PPC1 cells after 72 hrs by MTT assay; type: functional, cell-based; details: Homo sapiens, PPC-1, 72 h
[5] = Antiproliferative activity against Tsu-Pr1 cells after 72 hrs by MTT assay; type: functional, cell-based; details: Homo sapiens, TSU-Pr1, 72 h
[6] = system: A549; experiment: Antiproliferative activity against A549 cells after 72 hrs in folate depleted media; type: functional, cell-based; details: Homo sapiens, A549, 72 h
[7] = Antiproliferative activity against Tsu-Pr1 cells after 72 hrs in folate depleted media; type: functional, cell-based; details: Homo sapiens, TSU-Pr1, 72 h
[8] = target: T2, 72 kDa type IV collagenase (Homo sapiens, UniProt P08253); experiment: Inhibition of human recombinant MMP2 at 100 uM
Target sequence in this assay (P08253 110-660 limits assumed): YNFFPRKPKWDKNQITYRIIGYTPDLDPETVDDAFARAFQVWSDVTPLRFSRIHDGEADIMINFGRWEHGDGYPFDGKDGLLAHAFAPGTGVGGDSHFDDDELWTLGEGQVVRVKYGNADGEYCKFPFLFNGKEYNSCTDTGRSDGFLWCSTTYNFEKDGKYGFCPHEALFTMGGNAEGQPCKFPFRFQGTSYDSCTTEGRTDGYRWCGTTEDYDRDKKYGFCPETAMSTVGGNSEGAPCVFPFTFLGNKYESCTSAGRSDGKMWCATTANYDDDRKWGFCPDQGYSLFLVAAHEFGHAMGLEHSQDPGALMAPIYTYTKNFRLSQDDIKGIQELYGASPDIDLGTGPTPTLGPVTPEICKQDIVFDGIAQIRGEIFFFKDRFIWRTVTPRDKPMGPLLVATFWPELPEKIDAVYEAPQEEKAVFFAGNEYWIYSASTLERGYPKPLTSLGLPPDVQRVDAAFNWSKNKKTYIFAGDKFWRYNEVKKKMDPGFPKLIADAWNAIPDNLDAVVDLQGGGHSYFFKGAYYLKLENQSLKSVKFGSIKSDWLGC

[9] = target: T3, Dihydrofolate reductase (Homo sapiens, UniProt P00374)
T3 sequence (P00374 whole entry): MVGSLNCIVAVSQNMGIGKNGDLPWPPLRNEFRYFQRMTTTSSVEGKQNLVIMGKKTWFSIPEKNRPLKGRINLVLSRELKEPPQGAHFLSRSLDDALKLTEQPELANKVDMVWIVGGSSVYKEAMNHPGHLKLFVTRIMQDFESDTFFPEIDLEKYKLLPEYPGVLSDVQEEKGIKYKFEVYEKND
Description: Inhibition of DHFR using dihydrofolic acid substrate

[10] = target: T3, Dihydrofolate reductase; remark: listed apart in the source
Description: Inhibition of DHFR using folic acid substrate

[11] = target: T1, Matrix metalloproteinase-14; experiment: Inhibition of human recombinant MMP14 at 100 uM
[12] = target: T4, Matrilysin (Homo sapiens) (UniProt P09237); experiment: Inhibition of human recombinant MMP7 at 100 uM
T4 sequence (whole entry): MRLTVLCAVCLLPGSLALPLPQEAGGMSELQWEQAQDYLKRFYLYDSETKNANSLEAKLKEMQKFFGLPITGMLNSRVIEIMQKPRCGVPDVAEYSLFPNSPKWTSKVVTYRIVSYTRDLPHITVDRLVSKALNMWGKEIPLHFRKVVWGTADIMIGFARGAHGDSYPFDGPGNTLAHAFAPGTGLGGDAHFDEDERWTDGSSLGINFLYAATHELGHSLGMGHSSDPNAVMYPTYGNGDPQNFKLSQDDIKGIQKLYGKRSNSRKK

[13] = target: T5, Matrix metalloproteinase-9 (Homo sapiens, UniProt P14780); experiment: Inhibition of human recombinant MMP9 at 100 uM
[14] = target: T6, Matrilysin (Homo sapiens, UniProt P09237); experiment: Inhibition of human recombinant MMP7
T6 sequence (P09237 whole entry): T4 sequence (whole entry)

[15] = target: T1, Matrix metalloproteinase-14; experiment: Ratio of IC50 of drug to CGS 27023A for human recombinant MMP14
[16] = target: T4, Matrilysin (Homo sapiens); experiment: Ratio of IC50 of drug to CGS 27023A for human recombinant MMP7
[17] = target: T5, Matrix metalloproteinase-9; experiment: Inhibition of human recombinant MMP9
[18] = target: T5, Matrix metalloproteinase-9; experiment: Ratio of IC50 of drug to CGS 27023A for human recombinant MMP9
[19] = target: T2, 72 kDa type IV collagenase; experiment: Inhibition of human recombinant MMP2
Target sequence in this assay (P08253 whole entry): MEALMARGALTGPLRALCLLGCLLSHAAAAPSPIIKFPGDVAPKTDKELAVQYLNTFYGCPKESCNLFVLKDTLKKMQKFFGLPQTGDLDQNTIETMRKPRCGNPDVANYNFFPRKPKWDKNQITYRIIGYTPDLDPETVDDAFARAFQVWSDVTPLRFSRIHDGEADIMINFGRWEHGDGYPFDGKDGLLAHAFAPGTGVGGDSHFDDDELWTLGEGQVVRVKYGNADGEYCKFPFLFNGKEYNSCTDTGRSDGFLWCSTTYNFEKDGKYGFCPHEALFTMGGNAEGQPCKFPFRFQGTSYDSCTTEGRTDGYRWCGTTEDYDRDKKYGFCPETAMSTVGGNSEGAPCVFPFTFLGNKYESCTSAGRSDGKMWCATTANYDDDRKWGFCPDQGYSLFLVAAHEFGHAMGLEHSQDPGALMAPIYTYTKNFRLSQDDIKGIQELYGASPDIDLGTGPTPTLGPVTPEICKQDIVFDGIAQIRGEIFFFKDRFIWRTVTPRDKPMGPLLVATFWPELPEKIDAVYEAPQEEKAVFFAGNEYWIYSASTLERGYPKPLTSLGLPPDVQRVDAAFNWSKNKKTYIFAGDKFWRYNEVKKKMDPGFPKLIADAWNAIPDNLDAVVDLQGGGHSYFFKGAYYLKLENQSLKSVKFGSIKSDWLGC

[20] = target: T2, 72 kDa type IV collagenase; experiment: Ratio of IC50 of drug to CGS 27023A for human recombinant MMP2
Target sequence in this assay (P08253 110-660 limits assumed): as the sequence (P08253 110-660 limits assumed) above

T5 sequence (P14780 whole entry): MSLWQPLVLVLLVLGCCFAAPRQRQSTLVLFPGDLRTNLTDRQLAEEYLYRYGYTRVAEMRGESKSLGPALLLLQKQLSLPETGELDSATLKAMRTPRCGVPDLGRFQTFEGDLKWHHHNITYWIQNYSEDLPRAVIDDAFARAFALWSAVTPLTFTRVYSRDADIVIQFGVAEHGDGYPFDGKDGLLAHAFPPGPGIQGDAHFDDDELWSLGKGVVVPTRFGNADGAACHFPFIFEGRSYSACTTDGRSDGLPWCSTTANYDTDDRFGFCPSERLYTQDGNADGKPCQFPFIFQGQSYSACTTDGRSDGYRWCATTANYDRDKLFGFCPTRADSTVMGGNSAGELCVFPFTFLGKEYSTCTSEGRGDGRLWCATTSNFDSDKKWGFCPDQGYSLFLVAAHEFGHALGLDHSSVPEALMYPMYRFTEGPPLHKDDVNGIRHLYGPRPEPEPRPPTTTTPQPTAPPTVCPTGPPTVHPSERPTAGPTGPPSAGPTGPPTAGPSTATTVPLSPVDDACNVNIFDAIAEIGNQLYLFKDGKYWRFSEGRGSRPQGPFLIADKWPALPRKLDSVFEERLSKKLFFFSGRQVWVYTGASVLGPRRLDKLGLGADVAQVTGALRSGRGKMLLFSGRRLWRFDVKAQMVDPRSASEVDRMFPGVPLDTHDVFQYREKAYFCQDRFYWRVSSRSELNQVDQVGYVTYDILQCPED

Q: Which IC50 [1] does the source give for COc1ccc(S(=O)(=O)N(Cc2cccnc2)[C@@H](C(=O)NO)C(C)C)cc1 [CGS-27023A] here?
A: 23 nM

Q: What does the source list for CN(Cc1cnc2nc(N)nc(N)c2n1)c1ccc(C(=O)N[C@@H](CCC(=O)O)C(=O)O)cc1 [METHOTREXATE]?
A: IC50 [2]: 100 nM; IC50 [3]: 10 nM; IC50 [4]: 100 nM; IC50 [5]: 100 nM; IC50 [6]: 20 nM; IC50 [7]: 8 nM

Q: What does the source list for CN(Cc1cnc2nc(N)nc(N)c2n1)c1ccc(C(=O)N[C@@H](CCC(=O)N2CCC[C@H]2C(=O)NO)C(=O)O)cc1?
A: IC50 [2]: 7500 nM; inhibition [8]: 56%; IC50 [9]: 120 nM; IC50 [10]: 130 nM; inhibition [11]: 47%; IC50 [3]: 200 nM; IC50 [4]: 1800 nM; inhibition [12]: 43%; inhibition [13]: 61%; IC50 [5]: 2300 nM; IC50 [6]: 500 nM; IC50 [7]: 100 nM

Q: What does the source list for CN(Cc1cnc2nc(N)nc(N)c2n1)c1ccc(C(=O)N[C@@H](CCC(=O)NO)C(=O)O)cc1?
A: IC50 [2]: 6000 nM; inhibition [8]: 67%; IC50 [9]: 70 nM; IC50 [10]: 170 nM; inhibition [11]: 48%; IC50 [3]: 50 nM; IC50 [4]: 2000 nM; inhibition [13]: 61%; IC50 [14]: 100000 nM; IC50 [5]: 2000 nM; IC50 [6]: 100 nM; IC50 [7]: 10 nM

Q: Which IC50 [2] does the source give for NC1=NC(=O)C2N=C(CNc3ccc(C(=O)N[C@@H](CCC(=O)N4CCC[C@H]4C(=O)NO)C(=O)O)cc3)C=NC2=N1 (stereo not given in full) here?
A: 130000 nM

Q: And the inhibition [8]?
A: 58%

Q: And the IC50 [4]?
A: 120000 nM

Q: What about the inhibition [12] of the same molecule?
A: 54%

Q: What about the IC50 [5] of the same molecule?
A: 80000 nM

Q: For Nc1nc2ncc(CNc3ccc(C(=O)N[C@@H](CCC(=O)N[C@@H](Cc4ccccc4)C(=O)NO)C(=O)O)cc3)nc2c(=O)[nH]1, which Ratio IC50 [15] is on record?
A: 3480

Q: What about the IC50 [2] of the same molecule?
A: 110000 nM

Q: What about the Ratio IC50 [16] of the same molecule?
A: 150

Q: What about the IC50 [17] of the same molecule?
A: 22000 nM

Q: And the Ratio IC50 [18]?
A: 4400

Q: What about the IC50 [4] of the same molecule?
A: 70000 nM

Q: What about the IC50 [14] of the same molecule?
A: 15000 nM

Q: What about the IC50 [19] of the same molecule?
A: 65000 nM

Q: And the IC50 [5]?
A: 150000 nM

Q: And the IC50 [1]?
A: 80000 nM

Q: And the Ratio IC50 [20]?
A: 2710

Q: For Nc1nc2ncc(CNc3ccc(C(=O)N[C@@H](CCC(=O)NO)C(=O)O)cc3)nc2c(=O)[nH]1, which IC50 [2] is on record?
A: 100000 nM

Q: And the inhibition [8]?
A: 66%

Q: What about the inhibition [11] of the same molecule?
A: 42%

Q: What about the IC50 [4] of the same molecule?
A: 80000 nM

Q: What about the inhibition [12] of the same molecule?
A: 53%

Q: And the inhibition [13]?
A: 55%

Q: What about the IC50 [5] of the same molecule?
A: 120000 nM

Q: With CN(Cc1cnc2nc(N)nc(N)c2n1)c1ccc(C(=O)N[C@@H](CCC(=O)N[C@@H](Cc2ccccc2)C(=O)NO)C(=O)O)cc1 as the molecule, how does the Ratio IC50 [15] read?
A: 3040

Q: What about the IC50 [2] of the same molecule?
A: 6500 nM

Q: And the IC50 [9]?
A: 170 nM

Q: What about the IC50 [10] of the same molecule?
A: 250 nM

Q: What about the Ratio IC50 [16] of the same molecule?
A: 440

Q: What about the IC50 [17] of the same molecule?
A: 15000 nM

Q: What about the IC50 [3] of the same molecule?
A: 500 nM

Q: And the Ratio IC50 [18]?
A: 3000

Q: What about the IC50 [4] of the same molecule?
A: 4800 nM

Q: What about the IC50 [14] of the same molecule?
A: 44000 nM

Q: And the IC50 [19]?
A: 60000 nM

Q: What about the IC50 [5] of the same molecule?
A: 2000 nM

Q: What about the IC50 [6] of the same molecule?
A: 500 nM

Q: And the IC50 [1]?
A: 70000 nM

Q: What about the IC50 [7] of the same molecule?
A: 120 nM

Q: What about the Ratio IC50 [20] of the same molecule?
A: 2500
